Data published in paper PMC7347136 (PLoS ONE, 2020).

Key:
[1] = test system: subcutaneous HL60 tumors; assay: HL-60 human promyelocytic leukemia xenograft model; assay type: in vivo, athymic NCr-nu/nu mice
From the text: Five-week-old female athymic NCr-nu/nu mice were purchased from Harlan Sprague-Dawley (Prattville, AL). The animals were housed in microisolator cages, with up to five animals per cage in a 12-h light/dark cycle. The animals received filtered water and sterilized rodent diet (Harlan-Teklad TD8656) ad libitum. Each mouse was implanted subcutaneously near the right flank with ten million HL-60 cells using a 23-gauge needle and allowed to grow. Tumors were allowed to reach 75–144 mm^3 in size before treatment initiation. […] The %TGI values were calculated and statistical analyses performed as above.

[2] = test system: HEL; assay: Viacount viability assay by flow cytometry; assay type: cell-based, human; details: 6 h pulse, up to 2 μM, assessed at 48 h
Method: (§1) AML cells were seeded at 5 x 10^5 cells/ml in a 6-well plate and incubated with the test compound or vehicle control (DMSO) for 6, 8 or 10 h. At the end of the incubation period, cells were collected into Falcon tubes, pelleted via centrifugation (5 min at 478 x g), and medium containing compound was aspirated. The cells were resuspended in 4 ml of fresh compound-free medium and returned to the 6-well plates for further incubation. Following compound addition, 100 μl (at 24 h), 75 μl (at 48 h), 50 μl (at 72 h) or 30 μl (at 96 h) of a homogeneous suspension of cells were removed from the culture, made up to 100 μl with medium and mixed with 100 μl Guava Viacount reagent (Millipore, Nottingham, UK) in a 96-well plate. Samples were incubated for 20 min in the dark, mixed and then analyzed by GuavaSoft 2.6 software on the Guava Easycyte 8HT (Millipore). Guava Viacount software was used to gate and calculate the proportion of viable and dead cells in the population.

[3] = test system: KG-1; assay: Viacount viability assay by flow cytometry; assay type: cell-based, human; details: 6 h pulse, up to 2 μM, assessed at 48 h
Method: as §1

[4] = test system: Kasumi-1 cells; assay: Viacount viability assay by flow cytometry; assay type: cell-based, human; details: 6 h pulse, 0.5 or 1.0 μM, assessed at 24 h
Method: as §1

What does the source list for `CC[C@H](Nc1nc(NCc2cnc(C)cc2C)c2ncn(C(C)C)c2n1)[C@@H](C)O` [Fadraciclib, 2-pentanol, 3-[[6-[[(4,6-dimethyl-3-pyridinyl)methyl]amino]-9-(1-methylethyl)-9Hpurin-2-yl]amino]-, (2R,3S)]?
mean body weight loss ([1]; 70 mg/kg oral (highest dose)): 8%; tumor growth delay T-C ([1]; 70 mg/kg oral, 5 days on/2 days off, 2 cycles): > 12.6 days; TGI ([1]; 70 mg/kg oral, Day 11): 90%; tumor regression ([1]; 70 mg/kg oral, groups of 10 animals): Two animals achieved tumor regression and one was determined to be tumor-free; apoptosis (non-viable cells) [2]: no appreciable increase in apoptosis; apoptosis (non-viable cells) [3]: approximately 50%; cells induced into apoptosis (dead cells) [4]: up to 80%
